In brackets after ≈: the same amount, converted by molar mass. Read-outs that look alike come from different tables or passages of the source. Starred links: 1 amine or outer side, 2 acyl side, 3 side chain; linkers in the order of their positions; H or OH if unused. Positions of bridges follow the written chain, without caps; N, C: chain ends. Residues, ends and D or L forms follow the SMILES beside them. *: point of attachment. C20 diacid = O=C(O)CCCCCCCCCCCCCCCCCCC(=O)*; γGlu = O=C(O)[C@H](CCC(=O)[*:2])N[*:1]
What was measured:
[1] = Assay (IV) determination of solubility; format: physicochemical
Method in brief: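 Polypeptide in water (~500 nmol/ml) mixed 1:1 with 100 mM glycylglycine (pH 3.0–5.0) or bistrispropane (pH 6.0–8.0) buffers. Held 18 hours at room temperature, then centrifuged. Polypeptide remaining in solution quantified by HPLC.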

[2] = Assay (III) ThT fibrillation assay for physical stability; format: physicochemical; conditions: ThT fibrillation assay
Method in brief: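 Freshly prepared formulations, pH-adjusted, with 1 μM ThT; four or eight replicates incubated at 37 °C under 960 rpm orbital shaking. Fluorescence (ex 444/em 485 nm) read every 20 min; […]. Peptide concentration measured by RP-HPLC before and after the run.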

[3] = target: T1, human calcitonin receptor (Homo sapiens, UniProt P30988); assay: Assay (II)a functional CRE-luciferase assay, human calcitonin receptor; format: cell-based; conditions: Table 7; human calcitonin (CTa) receptor
T1 construct: expressed in transfected cells; host or cells: BHK570
T1 sequence (P30988 25-474): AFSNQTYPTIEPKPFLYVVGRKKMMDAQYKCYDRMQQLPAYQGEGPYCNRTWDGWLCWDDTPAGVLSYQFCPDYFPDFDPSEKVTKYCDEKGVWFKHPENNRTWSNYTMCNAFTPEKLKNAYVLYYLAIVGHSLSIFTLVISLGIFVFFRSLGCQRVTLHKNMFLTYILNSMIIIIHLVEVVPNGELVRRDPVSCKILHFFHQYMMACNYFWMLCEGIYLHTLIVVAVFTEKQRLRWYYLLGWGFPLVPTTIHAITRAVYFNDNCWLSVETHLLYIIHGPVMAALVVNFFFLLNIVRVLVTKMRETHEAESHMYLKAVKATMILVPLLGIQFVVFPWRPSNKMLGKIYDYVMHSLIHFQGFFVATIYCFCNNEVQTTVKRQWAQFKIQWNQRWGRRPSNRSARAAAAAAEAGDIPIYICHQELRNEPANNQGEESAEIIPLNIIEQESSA

[4] = target: T2, human amylin receptor (amylin 3(a) receptor: human calcitonin receptor + RAMP-3) (Homo sapiens, UniProt O60896+P30988); assay: Assay (II)a functional CRE-luciferase assay, human amylin receptor; format: cell-based; conditions: Table 2; BHK amylin 3(a)-receptor/CRE-luc cells
T2 construct: expressed in transfected cells; host or cells: BHK570
T2 sequence (P30988 25-474): T1 sequence (P30988 25-474)
T2 sequence (O60896 24-148 partner): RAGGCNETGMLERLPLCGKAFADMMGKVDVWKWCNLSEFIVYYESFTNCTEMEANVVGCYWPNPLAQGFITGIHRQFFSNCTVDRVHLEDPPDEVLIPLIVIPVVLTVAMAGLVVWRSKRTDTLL

[5] = bistrispropane buffer, pH 6, pH 6.0, read-out: Solubility pH 6.0
[6] = bistrispropane buffer, pH 6.5, pH 6.5, read-out: Solubility pH 6.5
[7] = bistrispropane buffer, pH 7, pH 7.0, 18 hours at room temperature, Table 3, read-out: Solubility pH 7.0
[8] = bistrispropane buffer, pH 7, pH 7.0, read-out: Solubility pH 7.0
[9] = bistrispropane buffer, pH 7.5, pH 7.5, read-out: Solubility pH 7.5
[10] = bistrispropane buffer, pH 8, pH 8.0, read-out: Solubility pH 8.0
[11] = glycylglycine buffer, pH 3, pH 3.0, read-out: Solubility pH 3.0
[12] = glycylglycine buffer, pH 4, pH 4.0, 18 hours at room temperature, Table 2, read-out: Solubility pH 4.0
[13] = glycylglycine buffer, pH 4, pH 4.0, read-out: Solubility pH 4.0
[14] = glycylglycine buffer, pH 5, pH 5.0, read-out: Solubility pH 5.0

solubility at 18 h [1, 5] | solubility at 18 h [1, 6] | solubility at 18 h [1, 7] | solubility at 18 h [1, 8] | solubility at 18 h [1, 9] | solubility at 18 h [1, 10] | solubility at 18 h [1, 11] | solubility at 18 h [1, 12] | solubility at 18 h [1, 13] | solubility at 18 h [1, 14] | ThT pH 4.0 lag time (h) [2] | EC50 [3] | EC50 [4] | ThT pH 4.0 lag time [2] | SMILES
> 200 µM | 198 µM (≈ 879 µg/mL) | > 200 µM | > 200 µM | > 200 µM | > 200 µM | > 200 µM | > 200 µM | > 200 µM | > 200 µM | 3.1 h | 0.0505 nM | 0.0495 nM |  | CC[C@H](C)[C@H](NC(=O)[C@@H]1CCCN1C(=O)CNC(=O)[C@H](Cc1ccccc1)NC(=O)[C@H](CC(N)=O)NC(=O)[C@H](CC(N)=O)NC(=O)[C@H](CO)NC(=O)[C@H](CO)NC(=O)[C@H](Cc1c[nH]cn1)NC(=O)[C@@H](NC(=O)[C@H](CC(C)C)NC(=O)[C@H](Cc1ccccc1)NC(=O)[C@H](CCC(=O)O)NC(=O)[C@H](C)NC(=O)[C@H](CC(C)C)NC(=O)[C@H](CCCNC(=N)N)NC(=O)[C@H](CCC(N)=O)NC(=O)[C@@H](NC(=O)[C@H](C)NC(=O)[C@@H]1CSSC[C@H](NC(=O)[C@H](CCCNC(=N)N)NC(=O)CNC(=O)CC[C@H](NC(=O)CCCCCCCCCCCCCCCCCCC(=O)O)C(=O)O)C(=O)N[C@@H](CC(N)=O)C(=O)N[C@@H]([C@@H](C)O)C(=O)N[C@@H](C)C(=O)N[C@@H]([C@@H](C)O)C(=O)N1)[C@@H](C)O)C(C)C)C(=O)N[C@@H](CC(C)C)C(=O)N1CCC[C@H]1C(=O)N1CCC[C@H]1C(=O)N[C@H](C(=O)N[C@@H](CC(N)=O)C(=O)N[C@H](C(=O)NCC(=O)N[C@@H](CO)C(=O)N[C@@H](CC(N)=O)C(=O)N[C@H](C(=O)N1CCC[C@H]1C(N)=O)[C@@H](C)O)C(C)C)[C@@H](C)O [Example 102, N-alpha-[(S)-4-Carboxy-4-(19-carboxynonadecanoylamino)butyryl]-Gly-[Arg1,Glu14,Pro37]-pramlintide] ({C20 diacid-γGlu}-GRCNTATCATQRLAEFLVHSSNNFGPILPPTNVGSNTP-NH2; disulfide 3-8 (inferred); C-terminus assumed)
> 200 µM | > 200 µM | 122 µM (≈ 549 µg/mL) | 122 µM (≈ 549 µg/mL) | 92 µM (≈ 414 µg/mL) | 79 µM (≈ 355 µg/mL) | > 200 µM | > 200 µM | > 200 µM | > 200 µM | >45 h | 0.0965 nM | 0.0685 nM | >45 h | CC[C@H](C)[C@H](NC(=O)[C@@H]1CCCN1C(=O)CNC(=O)[C@H](Cc1ccccc1)NC(=O)[C@H](CC(N)=O)NC(=O)[C@H](CC(N)=O)NC(=O)[C@H](CO)NC(=O)[C@H](CO)NC(=O)[C@H](CCCNC(=N)N)NC(=O)[C@H](Cc1c[nH]cn1)NC(=O)[C@H](CC(C)C)NC(=O)[C@H](Cc1ccccc1)NC(=O)[C@H](CCC(=O)O)NC(=O)[C@H](C)NC(=O)[C@H](CC(C)C)NC(=O)[C@H](CCCNC(=N)N)NC(=O)[C@H](CCC(N)=O)NC(=O)[C@@H](NC(=O)[C@H](C)NC(=O)[C@@H]1CSSC[C@H](NC(=O)[C@H](CCCCN)NC(=O)CC[C@H](NC(=O)CCCCCCCCCCCCCCCCCCC(=O)O)C(=O)O)C(=O)N[C@@H](CC(N)=O)C(=O)N[C@@H]([C@@H](C)O)C(=O)N[C@@H](C)C(=O)N[C@@H]([C@@H](C)O)C(=O)N1)[C@@H](C)O)C(=O)N[C@@H](CC(C)C)C(=O)N1CCC[C@H]1C(=O)N1CCC[C@H]1C(=O)N[C@H](C(=O)N[C@@H](CC(N)=O)C(=O)N[C@H](C(=O)NCC(=O)N[C@@H](CO)C(=O)N[C@@H](Cc1c[nH]cn1)C(=O)N[C@H](C(=O)N[C@@H](Cc1ccc(O)cc1)C(N)=O)[C@@H](C)O)C(C)C)[C@@H](C)O [Example 78, N-alpha-[(S)-4-Carboxy-4-(19-carboxynonadecanoylamino)butyryl]-[Glu14,His17,Arg18,His35]-pramlintide] ({C20 diacid-γGlu}-KCNTATCATQRLAEFLHRSSNNFGPILPPTNVGSHTY-NH2; disulfide 2-7 (inferred); C-terminus assumed)
100 µM (≈ 446 µg/mL) | 150 µM (≈ 669 µg/mL) | > 200 µM | > 200 µM | > 200 µM | > 200 µM | > 200 µM | > 200 µM | > 200 µM | > 200 µM | 23 h | 0.199 nM | 0.13 nM |  | CC[C@H](C)[C@H](NC(=O)[C@@H]1CCCN1C(=O)CNC(=O)[C@H](Cc1ccccc1)NC(=O)[C@H](CC(N)=O)NC(=O)[C@H](CC(N)=O)NC(=O)[C@H](CO)NC(=O)[C@H](CO)NC(=O)[C@H](Cc1c[nH]cn1)NC(=O)[C@H](Cc1c[nH]cn1)NC(=O)[C@H](CC(C)C)NC(=O)[C@H](Cc1ccccc1)NC(=O)[C@H](CCC(=O)O)NC(=O)[C@H](C)NC(=O)[C@H](CC(C)C)NC(=O)[C@H](CCCNC(=N)N)NC(=O)[C@H](CCC(=O)O)NC(=O)[C@@H](NC(=O)[C@H](C)NC(=O)[C@@H]1CSSC[C@H](NC(=O)[C@H](CCCCN)NC(=O)CC[C@H](NC(=O)CCCCCCCCCCCCCCCCCCC(=O)O)C(=O)O)C(=O)N[C@@H](CC(N)=O)C(=O)N[C@@H]([C@@H](C)O)C(=O)N[C@@H](C)C(=O)N[C@@H]([C@@H](C)O)C(=O)N1)[C@@H](C)O)C(=O)N[C@@H](CC(C)C)C(=O)N1CCC[C@H]1C(=O)N1CCC[C@H]1C(=O)N[C@H](C(=O)N[C@@H](CC(N)=O)C(=O)N[C@H](C(=O)NCC(=O)N[C@@H](CO)C(=O)N[C@@H](CC(N)=O)C(=O)N[C@H](C(=O)N[C@@H](Cc1ccc(O)cc1)C(N)=O)[C@@H](C)O)C(C)C)[C@@H](C)O [Example 54, N-alpha-[(S)-4-Carboxy-4-(19-carboxynonadecanoylamino)butyryl]-[Glu10,Glu14,His17]-pramlintide] ({C20 diacid-γGlu}-KCNTATCATERLAEFLHHSSNNFGPILPPTNVGSNTY-NH2; disulfide 2-7 (inferred))
6 µM (≈ 28.2 µg/mL) |  |  | 1 µM (≈ 4.7 µg/mL) | 13 µM (≈ 61.1 µg/mL) | 73 µM (≈ 343 µg/mL) | > 200 µM | > 200 µM | > 200 µM | > 200 µM | 1.7 h | 0.74 nM | 0.151 nM |  | CC[C@H](C)[C@H](NC(=O)[C@@H]1CCCN1C(=O)CNC(=O)[C@H](Cc1ccccc1)NC(=O)[C@H](CC(N)=O)NC(=O)[C@H](CC(N)=O)NC(=O)[C@H](CO)NC(=O)[C@H](CO)NC(=O)[C@H](Cc1c[nH]cn1)NC(=O)[C@@H](NC(=O)[C@H](CC(C)C)NC(=O)[C@H](Cc1ccccc1)NC(=O)[C@H](CCC(=O)O)NC(=O)[C@H](C)NC(=O)[C@H](CC(C)C)NC(=O)[C@H](CCCNC(=N)N)NC(=O)[C@H](CCC(N)=O)NC(=O)[C@@H](NC(=O)[C@H](C)NC(=O)[C@@H]1CSSC[C@H](NC(=O)[C@H](Cc2c[nH]cn2)NC(=O)[C@H](Cc2c[nH]cn2)NC(=O)[C@H](Cc2c[nH]cn2)NC(=O)CC[C@H](NC(=O)CCCCCCCCCCCCCCCCCCC(=O)O)C(=O)O)C(=O)N[C@@H](CC(N)=O)C(=O)N[C@@H]([C@@H](C)O)C(=O)N[C@@H](C)C(=O)N[C@@H]([C@@H](C)O)C(=O)N1)[C@@H](C)O)C(C)C)C(=O)N[C@@H](CC(C)C)C(=O)N1CCC[C@H]1C(=O)N1CCC[C@H]1C(=O)N[C@H](C(=O)N[C@@H](CC(N)=O)C(=O)N[C@H](C(=O)NCC(=O)N[C@@H](CO)C(=O)N[C@@H](CC(N)=O)C(=O)N[C@H](C(=O)N[C@@H](Cc1ccc(O)cc1)C(N)=O)[C@@H](C)O)C(C)C)[C@@H](C)O [Example 20, N-alpha-[(S)-4-Carboxy-4-(19-carboxynonadecanoylamino)butyryl]-His-His-[His1,Glu14]-pramlintide] ({C20 diacid-γGlu}-HHHCNTATCATQRLAEFLVHSSNNFGPILPPTNVGSNTY-NH2; disulfide 4-9 (inferred); C-terminus assumed)
